Experimental data from patent US8871772B2, “Therapeutic methods and compounds” (Ampio Pharmaceuticals, Inc., priority 2008, dated 2014).

How the values were obtained:
Type in all cases: cell-based
[1] = tested on: U-118 metastatic astrocytoma cell line; assay: Proliferation of U-118 cancer cells, Promega cell titer assay
Method: Assays were performed to determine the effect of Cpd. 5 on proliferation of an additional cancer cell line. This cell line was the U-118 metastatic astrocytoma cell line. It was obtained from ATCC.
To perform the assays, a 50 mM stock solution of Cpd. 5 was prepared in DMSO and frozen at −80° C. […] Controls containing equivalent amounts of DMSO to the 300 μM solution were mixed for comparative purposes. 100 μl of the resulting solutions were then added to 96 well culture plates in triplicate and placed in a 37° C. incubator with 5% CO2 to warm.
Cells were removed from passage flasks using trypsin and ethylenediaminetetracetic acid (EDTA) and counted using trypan blue to establish cell counts/ml and viability. For all experiments, viability of cells was greater than 95%. Solutions of 4,000 cells/100 μl were prepared in the medium from above, and 100 μl of the solutions were added to each well of the plates. The plates were placed back in the incubator and incubated with the compounds for 96 hours.
Following incubation, cell proliferation was assayed by adding 20 μl Promega cell titer aqueous one reagent to each well. Promega cell titer reagent is a solution containing a tetrazolium dye that is reduced by living cells to a formazan dye, and this reduction is proportional to the number of living cells present in the well. The plates were incubated at 37° C. for an additional 4 hours to allow the colorimetric assay to develop, and the OD of each well was determined in a microplate reader using a 530 nm filter. The OD of wells containing cell titer reagent in culture medium with no cells was subtracted from the OD of all experimental readings.
The % decrease of the total cell titer signal was determined using the following formula. ((Diluent OD−Experimental OD)/Diluent OD))×100. Data are presented in Table 5 as mean % decrease of cell titer signal of three separate experiments, plus or minus standard deviation. In the mean % decrease column, a positive number means a decrease in cell titer signal, while a negative number means an increase in cell titer signal. The p values were calculated versus diluent controls.
The above experiment was repeated using the U-118 cells at 3000 cells/well.

[2] = tested on: STTG grade 4 astrocytoma cell line; assay: Proliferation of STTG cancer cells, Promega cell titer assay; conditions: 20 μM, 96 hours, negative number = increase
Method: (§1) Assays were performed to determine the effect of Cpd. 5 (synthesis described in Example 1) on proliferation of two cancer cell lines. These two cell lines were STTG grade 4 astrocytoma cell line and AU565 breast cancer cell line. Both cell lines were obtained from American Type Culture Collection, Rockville, Md. (ATCC).
(§2) To perform the assays, a 50 mM stock solution of Cpd. 5 was prepared in DMSO and frozen at −80° C. Aliquots of the stock solution were removed and 100 μM dilutions were made in Iscove's modified Dulbecco's medium (IMDM; obtained from ATCC) supplemented with 10% fetal bovine serum (FBS) and penicillin/streptomycin solution. Controls containing equivalent amounts of DMSO to the 100 μM solution were mixed for comparative purposes. 100 μl of the resulting solutions were then added to 96 well culture plates in triplicate and placed in a 37° C. incubator with 5% CO2 to warm.
(§3) At this point, cells were removed from passage flasks using trypsin and counted using trypan blue to establish cell counts/ml and viability. For all experiments, viability of cells was greater than 95%. Solutions of 4,000 cells/100 μl were prepared in the medium from above and 100 μl of the solutions were added to each well of the plates. The plates were placed back in the incubator and incubated with the compounds for 96 hours.
(§4) Following incubation, cell proliferation was assayed by adding 20 μl Promega cell titer aqueous one reagent to each well. […] The plates were incubated at 37° C. for an additional 4-18 hours to allow the colorimetric assay to develop, and the OD of each well was determined in a microplate reader using a 530 nm filter. The OD of wells containing cell titer reagent in culture medium with no cells was subtracted from the OD of all experimental readings.
(§5) The % decrease of the total cell titer signal was determined using the following formula. […] The p values were calculated versus diluent controls.

[3] = tested on: AU565 breast cancer cell line; assay: Proliferation of AU565 cancer cells, Promega cell titer assay; conditions: AU565, 20 μM, 96 hours; negative number = increase
Method: as §1, §2, §3, §4, §5

Structure (SMILES): O=c1cc(N2CCNCC2)oc2c(-c3ccccc3)cccc12 [LY303511, reference compound]
- MEAN % DECREASE of cell titer signal ([1]; U-118, 3000 cells/well, 40 μM final): 0.41%
- MEAN % DECREASE of cell titer signal ([1]; U-118, 4,000 cells/well, 20 μM final, 96 hours): −25.93%
- MEAN % DECREASE of cell titer signal [2]: −4.74%
- MEAN % DECREASE of cell titer signal [3]: −2.34%
